Test results from patent US12274830B2, “Nitric oxide inhalation therapy for infants with bronchiolitis” (BEYOND AIR LTD, priority 2015, dated 2025).
“Also recorded” adds a separate entry of the source.

Assays:
Serracia sp. = settings: 200 ppm gNO; cited from earlier work
[1] = previous in vitro and animal studies; cited from earlier work
[2] = test system: infants with acute bronchiolitis; test: Safety and tolerability of intermittent inhalations of 160 ppm NO in hospitalized infants with acute bronchiolitis (randomized double blind study); format: in vivo, human
Experimental: The study was conducted at the Soroka University Medical Center in southern Israel, and was approved by the Institutional and National Human Ethics Committee. A detailed study overview is attached as an online supplement. This study is registered with clinical trial number NCT01768884.
The study was a randomized, prospective, single center, double blind study of 2-11 month old hospitalized infants with acute bronchiolitis (FIG. 1).
Subjects were screened within 4 hours of admission and randomized (1:1) to receive intermittent inhalations of 160 ppm NO along with standard treatment (NO group) or intermittent inhalations of 02/air mixture and standard treatment (control group), for a maximum of 25 inhalations.
Standard Supportive Treatment: This treatment included humidified oxygen, nasal suction when needed and hydration (oral, intra-venous or nasogastric tube fluids). The use of other concomitant medications was allowed, according to the ward's common practice.
Nitric Oxide Treatment: Subjects spontaneously inspired 160 ppm NO in fixed flow mode via a facemask. Nitric Oxide (Maxima, Israel) of 800 ppm (0.08%) NO balanced with 99.999% purity Nitrogen (N2), was titrated into the O2/air inspiratory delivery line. Inhaled NO, NO2 and O2 concentrations in the patient breathing circuit were continuously monitored using dedicated gas analyzers. (AeroNox, International medical, USA).
Primary Outcome: Safety measures, included % MetHb and NO2 production associated with NO treatment, bleeding episodes and any other adverse event (AE). Study threshold for NO2 and MetHb was set at 5 ppm and 5%, respectively.
The primary outcome was safety and tolerability of intermittent inhalations of 160 ppm NO, given to infants 2 to 11 months with acute bronchiolitis. Safety measures included % MetHb associated with NO treatment (safety threshold was determined as >5% for MetHb and >5 ppm for NO2), as well as any other AEs. Tolerability measures included the proportions of subjects who prematurely discontinued the study for any reason, and the proportion of subjects who prematurely discontinued the treatment due to severe SAEs.
The research staff was divided into “blinded” and “unblinded” groups. The unblinded staff administered the inhalations to the infants and monitored % MetHb, % SpO2 (co-oximeter, RAD57/RAD 87, Masimo Corporation, USA), fractional inhaled O2 (FiO2), NO, NO2 levels. The blinded group included the primary investigator and all other staff directly involved with patient care. Safety threshold for NO2 and MetHb was set at 5 ppm and 5%, respectively. It should be emphasized that both treatments, NO/O2 (NO treatment) as well as O2/air mixture (control) were given via the same device, therefore, parents were also blinded to the treatment arm.
Each patient was given 5 inhalations a day of NO (treatment group) or oxygen (control group), along with the standard supportive treatment, for a maximum of 25 inhalations (based on phase I safety data). Each participant was examined and evaluated using the severity symptom score by a blinded pediatricians every […] (9 am and 3 pm). When the room-air SpO2 reached 92%, and the score was ≤5, and the patient was assessed as “ready for discharge”, the treatment was discontinued.
The data were managed and analyzed by independent statisticians group using the SAS version 9.1 (SAS Institute, Cary, North Carolina). […]

Acinetobacter sp. = settings: 200 ppm gNO; cited from earlier work
[3] = NO Group (N = 21), Methemoglobin >5%
[4] = NO Group (N = 21), NO2 concentration >5 ppm
[5] = NO Group (N = 21), Oxyhemoglobin <89%

[N]=O [NO, nitric oxide]
+2.5 Log10 (Serracia sp.): 4.9 hours | LD100 (Serracia sp.): 6 h | Latent Period (Serracia sp.): 4 h | NO exposure needed before an anti-microbial effect was seen [1]: at least 2.5 hours | Bleeding episodes or deaths during the study ([2]; 160 ppm NO intermittent inhalation): no bleeding episodes or deaths; also recorded: no bleeding episodes | NO2 elevations and clinical evidence of toxicity ([2]; 30 minutes of inhaled 160 ppm NO five time a day): neither associated with significant elevations in NO2 nor clinical evidence of toxicity; also recorded: no events of significant NO2 elevations | Safety and tolerability versus control (standard supportive treatment) ([2]; ITT, PP): no statistically significant safety and tolerability differences; also recorded: comparable to those in the standard-supportive treatment | Any AE, events (E) ([2]; NO Group (N = 21)): 22 E | Any serious AE, events (E) ([2]; NO Group (N = 21)): 4 E | Any serious AE, subjects n (%) ([2]; NO Group (N = 21)): 4 (19.0%) n (%) | Any serious treatment-related AE, events (E) ([2]; NO Group (N = 21)): 0 E | Any severe AE, events (E) ([2]; NO Group (N = 21)): 1 E | Any severe AE, subjects n (%) ([2]; NO Group (N = 21)): 1 (4.8%) n (%) | Any treatment-related AE, events ([2]; NO Group (N = 21)): 6 E | Death, events (E) ([2]; NO Group (N = 21)): 0 E | Death, subjects n (%) ([2]; NO Group (N = 21)): 0 (0.0%) n (%) | Treatment withdrawal due to AE, events (E) ([2]; NO Group (N = 21)): 1 E | Treatment withdrawal due to AE, subjects n (%) ([2]; NO Group (N = 21)): 1 (4.8%) n (%) | Treatment-related AE: Blood and Lymphatic System Disorders, Events ([2]; NO Group (N = 21)): 5 Events | Treatment-related AE: Investigations, Events ([2]; NO Group (N = 21)): 1 Events | Treatment-related AE: Blood and Lymphatic System Disorders, subjects n (%) ([2]; NO Group (N = 21), MedDRA SOC): 4 (19.0%) n (%) | Treatment-related AE: Investigations, subjects n (%) ([2]; NO Group (N = 21), MedDRA SOC): 1 (4.8%) n (%) | Treatment-related AE: Methaemoglobinaemia, Events [2, 3]: 5 Events | Treatment-related AE: Methaemoglobinaemia, subjects n (%) [2, 3]: 4 (19.0%) n (%) | Treatment-related AE: NO2 increase, Events [2, 4]: 1 Events | Treatment-related AE: NO2 increase, subjects n (%) [2, 4]: 1 (4.8%) n (%) | Treatment-related AE: Oxyemoglobin decreased, Events [2, 5]: 1 Events | Treatment-related AE: Oxyemoglobin decreased, subjects n (%) [2, 5]: 1 (4.8%) n (%) | Any AE, subjects n (%) ([2]; NO Group (N = 21), intermittent 160 ppm NO + standard treatment): 10 (47.6%) n (%) | Any treatment-related AE, subjects n (%) ([2]; NO Group (N = 21), possibly or probably related to study treatment): 5 (23.8%) n (%) | Subjects in whom MetHb values >5% were observed more than once ([2]; NO group): 3 subjects | Subjects with MetHb measurement >5% during the study treatment period, n (%) ([2]; NO group): 6 (28.5%) n (%) | MetHb peak value at end of inhalation (mean) ([2]; NO group, each NO inhalation): 3.3±0.9% | Maximum MetHb value ([2]; NO group, in two subjects): 5.6% | Subjects who discontinued the study/study treatment, n (%) ([2]; NO group, tolerability): 2 (9.5%) n (%) | SpMet level of infants undergoing the method ([2]; general statement referring to the Examples): ≤ 1% | Cumulative effect / accumulation of MetHb over the treatment period ([2]; pre- vs end of inhalation MetHb levels): no cumulative effect; also recorded: no accumulation of MetHb | +2.5 Log10 (Acinetobacter sp.): 5 hours | LD100 (Acinetobacter sp.): 6 h | Latent Period (Acinetobacter sp.): 4 h
